From US9265253B2, “Use of macrocyclic picolinamides as fungicides” (DOW AGROSCIENCES LLC, priority 2013, dated 2016) come the findings set out here.

In assay [1] the test system is Mycosphaerella graminicola; Anamorph: Septoria tritici. The assay is described as follows: Leaf Blotch of Wheat (SEPTTR) disease control. Type of assay: in vivo. The conditions noted are these: Zymoseptoria tritici; for pest or weed control at 100 ppm: rate 100 ppm; for pest or weed control at 121.5 g/ha: rate 121.5 g/H. The gist of the method:
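Yuma wheat, 1st leaf stage; spray to run-off, acetone + 9 vol water/110 ppm Triton X-100; S. tritici spores pre- or post-treatment; dew chamber 100% RH, then greenhouse 20° C. Read: % severity vs untreated → % control.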

Assay [2] deals with Puccinia triticina; Synonym: Puccinia recondite f. Sp. Tritici. The assay is described as follows: Wheat Brown Rust (PUCCRT) disease control. Type of assay: in vivo. The conditions noted are these: Puccinia triticina, topical; for pest or weed control at 100 ppm: rate 100 ppm; for pest or weed control at 121.5 g/ha: rate 121.5 g/H. The gist of the method:
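Brown rust on first-leaf Yuma wheat: spore inoculation before or after spray application (acetone/Triton X-100 solution, or EC with Trycol in track spray), overnight 100% RH at 22 °C, disease developed at 24 °C. Severity scored 0–100% and converted to percent control against untreated.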

[3] abbreviates: 24 h, 1 Day Protectant, read-out: SEPTTR 1 DP disease control.
Setting [4] is: 72 h, 3 Day Curative, read-out: SEPTTR 3 DC disease control.
Where [5] appears, read: 24 h, 1 Day Protectant, read-out: PUCCRT 1 DP disease control.
Setting [6] is: 72 h, 3 Day Curative, read-out: PUCCRT 3 DC disease control.

Like-named read-outs stand apart in the source and are kept apart here.

For `COc1ccc(C[C@H]2CCC[C@H](NC(=O)c3nccc(OC)c3OC(C)=O)C(=O)O[C@@H](C)[C@@H]2OCC2CC2)cc1` [Compound F72], the pest or weed control at 100 ppm in assay [1] (setting [3]), in assay [1] (setting [4]), in assay [2] (setting [5]) and in assay [2] (setting [6]) was 80 to 100% throughout. The pest or weed control at 121.5 g/ha was in the range of 80 to 100% in assay [1] (setting [3]), 80 to 100% in assay [1] (setting [4]), 80 to 100% in assay [2] (setting [5]) and 0 to 80% in assay [2] (setting [6]).
Regarding `COc1ccnc(C(=O)N[C@H]2CCC[C@H](CC3CCCC3)[C@@H](OCC3CC3)[C@H](C)OC2=O)c1OC(C)=O` [Compound F73], the pest or weed control at 100 ppm in assay [1] (setting [3]), in assay [1] (setting [4]), in assay [2] (setting [5]) and in assay [2] (setting [6]) was 80 to 100% each time. Moreover, the pest or weed control at 121.5 g/ha in assay [1] (setting [3]), in assay [1] (setting [4]), in assay [2] (setting [5]) and in assay [2] (setting [6]) was 80 to 100% in each case.
With `CCCO[C@@H]1[C@@H](CC2CCCC2)CCC[C@H](NC(=O)c2nccc(OC)c2OC(C)=O)C(=O)O[C@H]1C` [Compound F74], the pest or weed control at 100 ppm in assay [1] (setting [3]), in assay [1] (setting [4]), in assay [2] (setting [5]) and in assay [2] (setting [6]) was 80 to 100% throughout. Further, the pest or weed control at 121.5 g/ha in assay [1] (setting [3]) lay in the range of 80 to 100%; in assay [1] (setting [4]), 80 to 100%; in assay [2] (setting [5]), 80 to 100%; in assay [2] (setting [6]), 0 to 80%.
In the case of `COc1ccnc(C(=O)N[C@H]2CCC[C@H](CC3CCCC3)[C@@H](OCC(C)C)[C@H](C)OC2=O)c1OC(C)=O` [Compound F75], the pest or weed control at 100 ppm in assay [1] (setting [3]), in assay [1] (setting [4]), in assay [2] (setting [5]) and in assay [2] (setting [6]) was 80 to 100% each time. The pest or weed control at 121.5 g/ha in assay [1] (setting [3]) fell in the range of 80 to 100%; in assay [1] (setting [4]), 80 to 100%; in assay [2] (setting [5]) it was 80 to 100%; in assay [2] (setting [6]) it was 0 to 80%.
`COc1ccnc(C(=O)N[C@H]2CCC[C@H](C)[C@@H](OCc3ccccc3)[C@H](C)OC2=O)c1OC(C)=O` [Compound F77]: the pest or weed control at 100 ppm in assay [1] (setting [3]), in assay [1] (setting [4]), in assay [2] (setting [5]) and in assay [2] (setting [6]) was 80 to 100% each time. The pest or weed control at 121.5 g/ha in assay [1] (setting [3]), in assay [1] (setting [4]), in assay [2] (setting [5]) and in assay [2] (setting [6]) was 80 to 100% each time.
As for `COc1ccnc(C(=O)N[C@H]2CCC[C@H](CCOCC3CC3)[C@@H](OCC3CC3)[C@H](C)OC2=O)c1OC(C)=O` [Compound F83], the pest or weed control at 100 ppm in assay [1] (setting [3]), in assay [2] (setting [5]) and in assay [2] (setting [6]) was 80 to 100% in each case. For the same molecule, the pest or weed control at 121.5 g/ha fell in the range of 0 to 80% in assay [1] (setting [3]), 0 to 80% in assay [1] (setting [4]), 80 to 100% in assay [2] (setting [5]) and 80 to 100% in assay [2] (setting [6]).
Consider `COc1ccnc(C(=O)N[C@H]2CCC[C@H](CCOc3ccccc3)[C@@H](OCC3CC3)[C@H](C)OC2=O)c1OC(C)=O` [Compound F84], for which the pest or weed control at 100 ppm in assay [1] (setting [3]), in assay [1] (setting [4]), in assay [2] (setting [5]) and in assay [2] (setting [6]) was 80 to 100% throughout. The pest or weed control at 121.5 g/ha in assay [1] (setting [3]) was in the range of 0 to 80%; in assay [2] (setting [5]) it was 80 to 100%; in assay [2] (setting [6]), 80 to 100%.
Turning to `COc1ccnc(C(=O)N[C@H]2CCC[C@@H]3CCO[C@H]3[C@H](C)OC2=O)c1OC(C)=O` [Compound F85], the pest or weed control at 121.5 g/ha was 0 to 80% in assay [1] (setting [3]), 80 to 100% in assay [2] (setting [5]) and 80 to 100% in assay [2] (setting [6]).
`COc1ccnc(C(=O)N[C@H]2CCC[C@H](CCC(C)C)[C@@H](Oc3ccccc3)[C@H](C)OC2=O)c1OCOC(C)=O` [Compound F89]: the pest or weed control at 100 ppm in assay [1] (setting [3]), in assay [1] (setting [4]), in assay [2] (setting [5]) and in assay [2] (setting [6]) was 80 to 100% throughout. For the same molecule, the pest or weed control at 121.5 g/ha in assay [1] (setting [3]) was 80 to 100%; in assay [1] (setting [4]), 80 to 100%; in assay [2] (setting [5]) it was 80 to 100%; in assay [2] (setting [6]), 0 to 80%.
`COc1ccnc(C(=O)N[C@H]2CCC[C@H](CCC(C)C)[C@@H](OCC(C)C)[C@H](C)OC2=O)c1OCOC(C)=O` [Compound F90]: the pest or weed control at 100 ppm in assay [1] (setting [3]), in assay [1] (setting [4]), in assay [2] (setting [5]) and in assay [2] (setting [6]) was 80 to 100% each time. Besides, the pest or weed control at 121.5 g/ha in assay [1] (setting [3]), in assay [1] (setting [4]), in assay [2] (setting [5]) and in assay [2] (setting [6]) was 80 to 100% in each case.
`COc1ccnc(C(=O)N[C@H]2CCC[C@H](CCC(C)C)[C@@H](OC3CCCC3)[C@H](C)OC2=O)c1OCOC(C)=O` [Compound F94]: the pest or weed control at 100 ppm in assay [1] (setting [3]), in assay [1] (setting [4]), in assay [2] (setting [5]) and in assay [2] (setting [6]) was 80 to 100% in each case.
Turning to `COc1ccnc(C(=O)N[C@H]2CCC[C@H](CCC(C)C)[C@@H](OC)[C@H](C)OC2=O)c1OCOC(C)=O` [Compound F95], the pest or weed control at 100 ppm in assay [1] (setting [3]), in assay [1] (setting [4]), in assay [2] (setting [5]) and in assay [2] (setting [6]) was 80 to 100% throughout. Besides, the pest or weed control at 121.5 g/ha in assay [1] (setting [3]) lay within 80 to 100%; in assay [1] (setting [4]) it was 0 to 80%; in assay [2] (setting [5]), 80 to 100%; in assay [2] (setting [6]) it was 0 to 80%.
As for `COc1ccnc(C(=O)N[C@H]2CCC[C@H](CC3CCCCC3)[C@@H](OCC3CC3)[C@H](C)OC2=O)c1OCOC(C)=O` [Compound F97], the pest or weed control at 100 ppm in assay [1] (setting [3]), in assay [1] (setting [4]), in assay [2] (setting [5]) and in assay [2] (setting [6]) was 80 to 100% each time. Moreover, the pest or weed control at 121.5 g/ha in assay [1] (setting [3]), in assay [1] (setting [4]), in assay [2] (setting [5]) and in assay [2] (setting [6]) was 80 to 100% each time.
With `COc1ccnc(C(=O)N[C@H]2CCC[C@H](Cc3ccc(F)cc3)[C@@H](Oc3ccccc3)[C@H](C)OC2=O)c1OCOC(C)=O` [Compound F99], the pest or weed control at 100 ppm in assay [1] (setting [3]), in assay [1] (setting [4]), in assay [2] (setting [5]) and in assay [2] (setting [6]) was 80 to 100% in each case. For the same molecule, the pest or weed control at 121.5 g/ha in assay [1] (setting [3]) lay within 80 to 100%; in assay [1] (setting [4]), 80 to 100%; in assay [2] (setting [5]) it was 80 to 100%; in assay [2] (setting [6]) it was 0 to 80%.
On to `C=CCO[C@@H]1[C@@H](Cc2ccc(F)cc2)CCC[C@H](NC(=O)c2nccc(OC)c2OCOC(C)=O)C(=O)O[C@H]1C` [Compound F100], for which the pest or weed control at 100 ppm in assay [1] (setting [3]), in assay [1] (setting [4]), in assay [2] (setting [5]) and in assay [2] (setting [6]) was 80 to 100% throughout. The pest or weed control at 121.5 g/ha in assay [1] (setting [3]) fell in the range of 80 to 100%; in assay [1] (setting [4]), 80 to 100%; in assay [2] (setting [5]), 80 to 100%; in assay [2] (setting [6]), 0 to 80%.
For the molecule `COc1ccnc(C(=O)N[C@H]2CCC[C@H](Cc3ccc(F)cc3)[C@@H](OCC(F)F)[C@H](C)OC2=O)c1OCOC(C)=O` [Compound F103], the pest or weed control at 100 ppm in assay [1] (setting [3]), in assay [1] (setting [4]), in assay [2] (setting [5]) and in assay [2] (setting [6]) was 80 to 100% throughout. Also, the pest or weed control at 121.5 g/ha in assay [1] (setting [3]), in assay [1] (setting [4]), in assay [2] (setting [5]) and in assay [2] (setting [6]) was 80 to 100% throughout.
In the case of `COc1ccnc(C(=O)N[C@H]2CCC[C@H](Cc3ccc(F)cc3)[C@@H](OC(=O)C3CCCC3)[C@H](C)OC2=O)c1OCOC(C)=O` [Compound F104], the pest or weed control at 100 ppm in assay [1] (setting [3]), in assay [1] (setting [4]), in assay [2] (setting [5]) and in assay [2] (setting [6]) was 80 to 100% throughout. Besides, the pest or weed control at 121.5 g/ha in assay [1] (setting [3]) is 80 to 100%; in assay [1] (setting [4]) it was 80 to 100%; in assay [2] (setting [5]) it was 80 to 100%; in assay [2] (setting [6]) it was 0 to 80%.
Consider `COc1ccnc(C(=O)N[C@H]2CCC[C@H](Cc3ccc(F)cc3)[C@@H](OC(=O)C(C)C)[C@H](C)OC2=O)c1OCOC(C)=O` [Compound F105], for which the pest or weed control at 100 ppm in assay [1] (setting [3]), in assay [1] (setting [4]) and in assay [2] (setting [6]) was 80 to 100% in each case. For the same molecule, the pest or weed control at 121.5 g/ha in assay [1] (setting [3]), in assay [1] (setting [4]), in assay [2] (setting [5]) and in assay [2] (setting [6]) was 80 to 100% each time.
